Source: article PMC7704689 (Bioorganic & medicinal chemistry letters, 2020)

Test system: Raji cells, a Burkitt's lymphoma (BL) cell line
Experiment: Viability of Raji cells
Assay type: cell-based, human
Conditions: 100 nM, 72 h

Question: For `COC(=O)[C@@]12OC[C@]34[C@H]([C@@H](O)[C@@H]1O)[C@@]1(C)CC(=O)C(OC(=O)[C@H](C)NC(=O)OC(C)(C)C)=C(C)[C@@H]1C[C@H]3OC(=O)[C@H](OC(=O)C=C(C)C)[C@@H]24` [Compound 6], which “inhibition of viability of Raji cells” value is on record?
Answer: Its value is “moderate inhibition”.

Question: For `COC(=O)[C@@]12OC[C@]34[C@H]([C@@H](O)[C@@H]1O)[C@@]1(C)CC(=O)C(OC(=O)[C@@H]5CCCN5C(=O)OC(C)(C)C)=C(C)[C@@H]1C[C@H]3OC(=O)[C@H](OC(=O)C=C(C)C)[C@@H]24` [Compound 11], which “inhibition of viability of Raji cells” value is on record?
Answer: Its value is “moderate inhibition”.

Question: Which “inhibition of viability of Raji cells” value does the source give for `COC(=O)[C@@]12OC[C@]34[C@H]([C@@H](O)[C@@H]1O)[C@@]1(C)CC(=O)C(OC(=O)CNC(=O)CN)=C(C)[C@@H]1C[C@H]3OC(=O)[C@H](OC(=O)C=C(C)C)[C@@H]24` [Compound 20] here?
Answer: Its value is “potent activities comparable to or higher than the parent brusatol”.

Question: How did the “inhibition of viability of Raji cells” value turn out when `COC(=O)[C@@]12OC[C@]34[C@H]([C@@H](O)[C@@H]1O)[C@@]1(C)CC(=O)C(OC(=O)C[C@H](C)NC(=O)C[C@H](C)N)=C(C)[C@@H]1C[C@H]3OC(=O)[C@H](OC(=O)C=C(C)C)[C@@H]24` [Compound 21] was run?
Answer: Its value is “potent activities comparable to or higher than the parent brusatol”.

Question: With `COC(=O)[C@@]12OC[C@]34[C@H]([C@@H](O)[C@@H]1O)[C@@]1(C)CC(=O)C(OC(=O)[C@H](C)NC(=O)[C@H](C)N)=C(C)[C@@H]1C[C@H]3OC(=O)[C@H](OC(=O)C=C(C)C)[C@@H]24` [Compound 22] as the compound, how does the “inhibition of viability of Raji cells” value read?
Answer: The value was “not active”.

Question: With `COC(=O)[C@@]12OC[C@]34[C@H]([C@@H](O)[C@@H]1O)[C@@]1(C)CC(=O)C(OC(=O)CNC(=O)CNC(=O)CN)=C(C)[C@@H]1C[C@H]3OC(=O)[C@H](OC(=O)C=C(C)C)[C@@H]24` [Compound 23] as the compound, how does the “inhibition of viability of Raji cells” value read?
Answer: The value was “potent activities comparable to or higher than the parent brusatol”.

Question: `COC(=O)[C@@]12OC[C@]34[C@H]([C@@H](O)[C@@H]1O)[C@@]1(C)CC(=O)C(OC(=O)C[C@H](C)NS(C)(=O)=O)=C(C)[C@@H]1C[C@H]3OC(=O)[C@H](OC(=O)C=C(C)C)[C@@H]24` [Compound 29] was tested. Which “inhibition of viability of Raji cells” value did it give?
Answer: Its value is “lost activities”.

Question: `COC(=O)[C@@]12OC[C@]34[C@H]([C@@H](O)[C@@H]1O)[C@@]1(C)CC(=O)C(OCC(=O)NCCN)=C(C)[C@@H]1C[C@H]3OC(=O)[C@H](OC(=O)C=C(C)C)[C@@H]24` [Compound 40] was tested. Which “inhibition of viability of Raji cells” value did it give?
Answer: The value was “moderate activity”.

Question: For `COC(=O)[C@@]12OC[C@]34[C@H]([C@@H](O)[C@@H]1O)[C@@]1(C)CC(=O)C(OC(=O)CNC(=O)OC(C)(C)C)=C(C)[C@@H]1C[C@H]3OC(=O)[C@H](OC(=O)C=C(C)C)[C@@H]24` [UPB-15], which “inhibition of viability of Raji cells” value is on record?
Answer: Its value is “moderate inhibition”.

Question: `COC(=O)[C@@]12OC[C@]34[C@H]([C@@H](O)[C@@H]1O)[C@@]1(C)CC(=O)C(OC(=O)C[C@H](C)N)=C(C)[C@@H]1C[C@H]3OC(=O)[C@H](OC(=O)C=C(C)C)[C@@H]24` [UPB-26, 3-(3-β-HoAla)-brusatol] was tested. Which “inhibition of viability of Raji cells” value did it give?
Answer: The value was “potent activities comparable to or higher than the parent brusatol”.

Question: Which “inhibition of viability of Raji cells” value does the source give for `COC(=O)[C@@]12OC[C@]34[C@H]([C@@H](O)[C@@H]1O)[C@@]1(C)CC(=O)C(OC(=O)[C@@H]5CCCN5)=C(C)[C@@H]1C[C@H]3OC(=O)[C@H](OC(=O)C=C(C)C)[C@@H]24` [UPB-31] here?
Answer: The value was “potent activities comparable to or higher than the parent brusatol”.

Test system: MOLT-4, SU-DHL-6, SU-DHL-10, RPMI-8226 and LCL1 cells
Experiment: Activity on five other hematologic malignancy derived cell lines
Assay type: cell-based, human
Conditions: MOLT-4, SU-DHL-6, SU-DHL-10, RPMI-8226, LCL1

Question: `COC(=O)[C@@]12OC[C@]34[C@H]([C@@H](O)[C@@H]1O)[C@@]1(C)CC(=O)C(OCC(=O)NCCN)=C(C)[C@@H]1C[C@H]3OC(=O)[C@H](OC(=O)C=C(C)C)[C@@H]24` [Compound 40] was tested. Which “activity on five other cell lines” value did it give?
Answer: The value was “moderate to good activities”.

Test system: NOD/SCID mice
Experiment: not given
Conditions: mouse, in vivo

Question: `COC(=O)[C@@]12OC[C@]34[C@H]([C@@H](O)[C@@H]1O)[C@@]1(C)CC(=O)C(OC(=O)C[C@H](C)N)=C(C)[C@@H]1C[C@H]3OC(=O)[C@H](OC(=O)C=C(C)C)[C@@H]24` [UPB-26, 3-(3-β-HoAla)-brusatol] was tested. Which “mice survived (of 4 per group)” value did it give?
Answer: Its value is “four”.
